The target of one experiment is T1, PI3K p110g (Homo sapiens, UniProt P48736).
T1 construct: purchased Millipore
The experiment in a line: PI3K p110g kinase assay. The format is biochemical. The protocol: (§1) In the assays described here, p110α-p85 complex and p110γ were acquired from Millipore. Assays were performed with Lα-phosphatidylinositol (Avanti) as described in Knight et al. Nat Protoc. 2007; 2 (10):2459-66. Inhibitor series were prepared 10% DMSO as 5× stocks for the assay. Assays of HsVps34 were performed as described in Knight et al, except that the final assay buffer composition used was changed to 20 mM HEPES 7.5, 100 mM NaCl, 3 mM MgCl, 1 mg/mL PI and 44 nM hvps34 was used in the assay. […] COS-7 cells were cultured in 10 cm dishes and transfected at 70% confluence with 10 μg of plasmid DNA (HA-tagged bovine PI4KIIIβ, HA-tagged human PI4KIIIα) using Lipofectamine 2000 and 5 ml Opti-MEM following the manufacturer's instructions. After 5 hours the transfection medium was replaced with 10 ml complete DMEM. 36 hrs post transfection, cells were washed once with 5 ml PBS (pH 7.4) and lysed in 1 ml of lysis buffer (1) on ice. Lysates were collected by scraping and after 15 min they were centrifuged at 13,000 rpm for 10 min. To the lysates was added 200 μl of protein G Sepharose 4 fast flow beads that were prewashed with PBS and lysis buffer and 2 μg of anti-HA antibody. The tubes were then incubated overnight at 4 degrees C. in a tube rotator. The Sepharose beads in the lysate were washed twice with 150 mM NaCl in RIPA buffer, twice with RIPA buffer and once with kinase buffer (50 mM Tris/HCl, pH 7.5, 20 mM MgCl2, 1 mM EGTA, 1 mM PtdIns, 0.4% Triton X-100, 0.5 mg/mL BSA) and finally the beads were resuspended in 200 μL kinase buffer. Kinase reactions were run in a mixture of 45 μL of PI buffer (1 mM PI in kinase buffer), 10 μL of immunoprecipitated beads, 2 µL of inhibitors (dissolved and diluted in DMSO) or DMSO and 5 μL of [γ-^32P]-ATP (1 mM and 2 μCi/tube). The immunoprecipitates in PI buffer were pre-incubated with the drugs for 20 min prior the initiation of kinase reaction by adding ATP and the reactions were carried out for 30 min in 15 ml polypropolyne tubes. Reactions were terminated by addition of 3 ml of CHCl3:CH3OH:HCl (200:100:0.75) followed by 0.6 ml of 0.6N HCl to induce phase separation. The mixtures were vortexed, centrifuged at 2000 rpm for 2 min and the upper phase was discarded. To the lower phase was added 1.5 ml of CHCl3:CH3OH:0.6N HCl (3:48:47) and the mixture vortexed and centrifuged at 2000 rpm for 2 min. The lower phase was then transferred to counting vials and evaporated. Samples were counted in a scintillation beta counter after adding 5 ml of Instafluor (Perkin-Elmer).
(§2) PI-kinase assay: Compounds are tested in C.1.1. PI kinase assays as described by Shokat et al., “A membrane capture assay for lipid kinase activity.” Nat. Protoc. 2007; 2(10):2459-66.

In another experiment the target is PI3KC2B (Homo sapiens, UniProt O00750). The experiment can be described thus: PI3KC2B kinase assay. The format is biochemical. The protocol: as §2
PI3KC2B, sequence (O00750 whole entry): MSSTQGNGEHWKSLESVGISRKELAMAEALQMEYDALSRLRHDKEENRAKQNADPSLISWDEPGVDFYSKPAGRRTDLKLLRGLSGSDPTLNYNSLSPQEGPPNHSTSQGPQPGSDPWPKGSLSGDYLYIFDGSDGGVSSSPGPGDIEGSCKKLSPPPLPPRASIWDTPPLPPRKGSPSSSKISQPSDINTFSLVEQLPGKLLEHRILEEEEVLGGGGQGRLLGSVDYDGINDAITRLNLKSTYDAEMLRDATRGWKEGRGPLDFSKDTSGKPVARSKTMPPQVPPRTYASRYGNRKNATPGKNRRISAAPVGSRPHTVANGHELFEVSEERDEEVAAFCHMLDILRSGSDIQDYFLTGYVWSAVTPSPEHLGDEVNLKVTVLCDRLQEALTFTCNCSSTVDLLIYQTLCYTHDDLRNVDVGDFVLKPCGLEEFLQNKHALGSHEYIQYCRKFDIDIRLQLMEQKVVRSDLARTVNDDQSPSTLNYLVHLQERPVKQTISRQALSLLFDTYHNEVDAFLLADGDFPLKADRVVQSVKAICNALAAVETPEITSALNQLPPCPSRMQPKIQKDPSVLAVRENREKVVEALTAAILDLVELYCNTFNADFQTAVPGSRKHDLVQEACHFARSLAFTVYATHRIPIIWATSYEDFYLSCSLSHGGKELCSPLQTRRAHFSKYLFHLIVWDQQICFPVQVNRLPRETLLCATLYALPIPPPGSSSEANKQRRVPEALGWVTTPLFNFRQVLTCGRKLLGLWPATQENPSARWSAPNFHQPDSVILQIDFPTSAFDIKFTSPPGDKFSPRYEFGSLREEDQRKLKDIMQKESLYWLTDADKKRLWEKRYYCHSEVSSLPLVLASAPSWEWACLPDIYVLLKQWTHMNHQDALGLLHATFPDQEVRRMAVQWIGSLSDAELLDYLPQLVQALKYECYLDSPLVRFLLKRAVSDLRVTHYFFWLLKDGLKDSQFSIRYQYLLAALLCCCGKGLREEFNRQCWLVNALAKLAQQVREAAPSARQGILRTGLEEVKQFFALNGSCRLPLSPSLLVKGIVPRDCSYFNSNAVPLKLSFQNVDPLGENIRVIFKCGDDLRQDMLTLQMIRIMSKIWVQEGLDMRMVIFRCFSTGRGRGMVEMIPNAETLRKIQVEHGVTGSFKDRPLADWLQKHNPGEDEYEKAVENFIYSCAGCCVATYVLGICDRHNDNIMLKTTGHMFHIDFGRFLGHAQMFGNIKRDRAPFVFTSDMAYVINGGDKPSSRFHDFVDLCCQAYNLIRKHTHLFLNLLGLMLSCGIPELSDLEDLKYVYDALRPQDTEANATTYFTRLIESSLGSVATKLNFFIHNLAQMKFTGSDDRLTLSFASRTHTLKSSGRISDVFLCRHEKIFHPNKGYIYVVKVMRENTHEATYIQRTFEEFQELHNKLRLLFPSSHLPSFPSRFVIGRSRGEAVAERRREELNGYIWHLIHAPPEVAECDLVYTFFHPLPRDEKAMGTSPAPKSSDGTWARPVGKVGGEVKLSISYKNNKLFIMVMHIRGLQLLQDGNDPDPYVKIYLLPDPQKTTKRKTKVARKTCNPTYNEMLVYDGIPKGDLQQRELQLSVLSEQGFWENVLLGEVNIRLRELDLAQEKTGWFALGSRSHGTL
In a further experiment the test system is HCV genotype 2a. The experiment can be described thus: microbe, parasite or virus in culture. Type of experiment: cell-based. The following applies: Hepatitis C virus, Huh7.5, read-out: HCV2a EC50.
In the next experiment the test system is HRV. The experiment can be described thus: Rhinovirus antiviral assay. The format is cell-based. The following applies: Human rhinovirus sp.
A further experiment has as its system EV71. The experiment in a line: EV71 antiviral assay. The format is cell-based. Particulars: Enterovirus A.
The subject of the next experiment is Ebola. The experiment in a line: microbe, parasite or virus in culture. The format is cell-based. Particulars: Zaire ebolavirus, read-out: Ebola EC50.
In the next experiment the test system is Norovirus. The experiment in a line: Norovirus antiviral assay. Type of experiment: cell-based.
The next experiment concerns the target T2, PI4KIIIA (Homo sapiens, UniProt P42356).
T2 construct: made in house; host or cells: COS-7 cells, transient transfection, anti-HA immunoprecipitate on protein G Sepharose beads
The experiment can be described thus: PI4KIIIA kinase assay. The format is biochemical. The protocol: as §1, with “Reactions were terminated by addition of 3 ml of CHCl3:CH3OH:HCl (200:100:0.75) followed by 0.6 ml of 0.6N HCl to induce phase separation. The mixtures were vortexed, centrifuged at 2000 rpm for 2 min and the upper phase was discarded. To the lower phase was added 1.5 ml of CHCl3:CH3OH:0.6N HCl (3:48:47) and the mixture vortexed and centrifuged at 2000 rpm for 2 min. The lower phase was then transferred to counting vials and evaporated.” left out, “(Perkin-Elmer). […]” for “(Perkin-Elmer).”

A further experiment has as its target T3, PI4KIIIB (Bos taurus, UniProt O02810).
T3 construct: made in house; host or cells: COS-7 cells, transient transfection, anti-HA immunoprecipitate on protein G Sepharose beads
The experiment in a line: PI4KIIIB kinase assay. The format is biochemical, bovine. The protocol: as §1, with “2007; 2 (10):2459-66.” left out, “for” for “for the assay. Assays of HsVps34 were performed as described in Knight et al, except that the final assay buffer composition used was changed to 20 mM HEPES 7.5, 100 mM NaCl, 3 mM MgCl, 1 mg/mL PI and 44 nM hvps34 was used in”, “Lysates were collected by scraping and after 15 min they were centrifuged at 13,000 rpm for 10 min.” left out, “The Sepharose beads in the lysate were washed twice with 150 mM NaCl in RIPA buffer, twice with RIPA buffer and once with kinase buffer (50 mM Tris/HCl, pH 7.5, 20 mM MgCl2, 1 mM EGTA, 1 mM PtdIns, 0.4% Triton X-100, 0.5 mg/mL BSA) and finally the beads were resuspended in 200 μL kinase buffer.” left out
PI-kinase assay: Compounds are tested in C.1.1. PI kinase assays as described by Shokat et al., “A membrane capture assay for lipid kinase activity.” Nat. Protoc.

For a further experiment, the target named is T4, PI3KC2G (Homo sapiens, UniProt O75747).
T4 sequence (O75747 1-1486): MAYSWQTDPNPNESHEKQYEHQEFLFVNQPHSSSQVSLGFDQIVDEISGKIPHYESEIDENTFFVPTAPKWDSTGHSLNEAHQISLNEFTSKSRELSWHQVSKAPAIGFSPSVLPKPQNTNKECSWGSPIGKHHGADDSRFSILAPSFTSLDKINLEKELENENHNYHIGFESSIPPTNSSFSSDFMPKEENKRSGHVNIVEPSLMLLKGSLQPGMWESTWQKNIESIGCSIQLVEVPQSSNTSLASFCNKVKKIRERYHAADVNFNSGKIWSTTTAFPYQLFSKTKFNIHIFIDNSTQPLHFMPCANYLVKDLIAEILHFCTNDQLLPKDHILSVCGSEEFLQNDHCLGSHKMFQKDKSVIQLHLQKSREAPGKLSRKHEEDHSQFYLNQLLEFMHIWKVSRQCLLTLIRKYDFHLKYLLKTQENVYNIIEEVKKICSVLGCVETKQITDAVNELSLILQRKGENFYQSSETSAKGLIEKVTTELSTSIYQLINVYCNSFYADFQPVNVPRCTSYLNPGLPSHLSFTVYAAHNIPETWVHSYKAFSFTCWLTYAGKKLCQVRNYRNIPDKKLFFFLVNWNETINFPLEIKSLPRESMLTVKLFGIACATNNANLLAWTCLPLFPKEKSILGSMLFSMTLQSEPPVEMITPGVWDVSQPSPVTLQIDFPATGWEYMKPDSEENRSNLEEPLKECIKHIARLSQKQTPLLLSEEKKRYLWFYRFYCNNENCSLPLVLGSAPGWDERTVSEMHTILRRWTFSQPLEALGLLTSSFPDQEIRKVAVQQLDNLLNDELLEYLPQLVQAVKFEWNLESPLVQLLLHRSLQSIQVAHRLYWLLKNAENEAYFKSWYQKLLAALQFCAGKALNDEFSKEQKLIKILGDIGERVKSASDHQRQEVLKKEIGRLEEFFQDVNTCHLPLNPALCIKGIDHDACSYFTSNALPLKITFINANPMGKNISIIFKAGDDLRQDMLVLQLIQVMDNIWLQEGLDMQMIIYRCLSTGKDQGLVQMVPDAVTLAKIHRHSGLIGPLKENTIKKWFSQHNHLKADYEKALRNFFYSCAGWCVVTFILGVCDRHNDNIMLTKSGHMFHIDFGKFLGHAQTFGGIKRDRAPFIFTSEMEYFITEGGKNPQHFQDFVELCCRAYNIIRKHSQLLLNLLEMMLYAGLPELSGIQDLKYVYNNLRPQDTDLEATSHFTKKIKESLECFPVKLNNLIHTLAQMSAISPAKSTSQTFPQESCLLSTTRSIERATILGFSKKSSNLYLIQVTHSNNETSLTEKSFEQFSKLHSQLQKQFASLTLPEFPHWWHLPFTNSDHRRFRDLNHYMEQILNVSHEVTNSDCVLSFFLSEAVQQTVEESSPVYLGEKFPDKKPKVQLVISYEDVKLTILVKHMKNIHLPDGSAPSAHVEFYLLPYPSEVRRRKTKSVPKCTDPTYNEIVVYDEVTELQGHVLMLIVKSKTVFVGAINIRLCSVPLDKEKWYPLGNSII
The experiment in a line: PI3KC2G kinase assay. Type of experiment: biochemical.

Another experiment relates to HCV replicon. The experiment in a line: Resistance selection in HCV replicon system. Type of experiment: cell-based. In general terms: Replicon systems follow genome replication, usually without infectious particles.

Our source for the IC50, EC50 and Selection of resistance values is US10428060B2, “PI-kinase inhibitors with anti-infective activity” (The Board of Trustees of the Leland Stanford Junior …, priority 2011, dated 2019).

SMILES strings stand for the structures. Some results are limits rather than exact numbers.

As a reminder, the IC50 is the concentration that inhibits the measured activity by half. The EC50 is the concentration needed to bring the measured effect to its halfway point.

T1 sequence (P48736 whole entry): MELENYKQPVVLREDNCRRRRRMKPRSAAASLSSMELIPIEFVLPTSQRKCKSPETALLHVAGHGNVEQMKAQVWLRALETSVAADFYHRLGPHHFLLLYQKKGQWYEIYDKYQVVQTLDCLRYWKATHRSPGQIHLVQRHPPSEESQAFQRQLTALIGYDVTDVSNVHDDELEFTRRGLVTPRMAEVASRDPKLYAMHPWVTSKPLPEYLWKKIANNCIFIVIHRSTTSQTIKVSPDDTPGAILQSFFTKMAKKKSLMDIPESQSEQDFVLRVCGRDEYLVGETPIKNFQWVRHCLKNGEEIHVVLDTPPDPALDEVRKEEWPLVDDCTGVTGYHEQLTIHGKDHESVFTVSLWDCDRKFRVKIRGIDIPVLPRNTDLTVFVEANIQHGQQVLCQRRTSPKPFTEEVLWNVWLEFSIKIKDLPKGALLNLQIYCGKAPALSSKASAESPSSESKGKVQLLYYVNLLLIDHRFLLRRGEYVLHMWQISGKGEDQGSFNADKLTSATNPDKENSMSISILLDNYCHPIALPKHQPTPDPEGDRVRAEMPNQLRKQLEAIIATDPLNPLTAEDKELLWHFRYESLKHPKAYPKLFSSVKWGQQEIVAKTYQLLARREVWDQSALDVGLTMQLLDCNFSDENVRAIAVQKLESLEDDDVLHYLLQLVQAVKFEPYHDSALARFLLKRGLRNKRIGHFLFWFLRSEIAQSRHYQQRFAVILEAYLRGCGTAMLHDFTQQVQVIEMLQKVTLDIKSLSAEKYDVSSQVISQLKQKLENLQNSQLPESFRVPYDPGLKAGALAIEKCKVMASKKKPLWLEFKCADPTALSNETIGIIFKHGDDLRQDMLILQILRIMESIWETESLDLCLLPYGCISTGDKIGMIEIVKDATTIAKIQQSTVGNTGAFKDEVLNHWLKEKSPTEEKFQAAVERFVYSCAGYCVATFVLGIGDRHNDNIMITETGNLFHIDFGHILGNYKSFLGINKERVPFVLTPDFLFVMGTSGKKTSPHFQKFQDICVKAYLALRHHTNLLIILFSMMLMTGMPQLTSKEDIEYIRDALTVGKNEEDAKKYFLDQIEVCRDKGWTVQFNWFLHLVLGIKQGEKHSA
T2 sequence (P42356 whole entry): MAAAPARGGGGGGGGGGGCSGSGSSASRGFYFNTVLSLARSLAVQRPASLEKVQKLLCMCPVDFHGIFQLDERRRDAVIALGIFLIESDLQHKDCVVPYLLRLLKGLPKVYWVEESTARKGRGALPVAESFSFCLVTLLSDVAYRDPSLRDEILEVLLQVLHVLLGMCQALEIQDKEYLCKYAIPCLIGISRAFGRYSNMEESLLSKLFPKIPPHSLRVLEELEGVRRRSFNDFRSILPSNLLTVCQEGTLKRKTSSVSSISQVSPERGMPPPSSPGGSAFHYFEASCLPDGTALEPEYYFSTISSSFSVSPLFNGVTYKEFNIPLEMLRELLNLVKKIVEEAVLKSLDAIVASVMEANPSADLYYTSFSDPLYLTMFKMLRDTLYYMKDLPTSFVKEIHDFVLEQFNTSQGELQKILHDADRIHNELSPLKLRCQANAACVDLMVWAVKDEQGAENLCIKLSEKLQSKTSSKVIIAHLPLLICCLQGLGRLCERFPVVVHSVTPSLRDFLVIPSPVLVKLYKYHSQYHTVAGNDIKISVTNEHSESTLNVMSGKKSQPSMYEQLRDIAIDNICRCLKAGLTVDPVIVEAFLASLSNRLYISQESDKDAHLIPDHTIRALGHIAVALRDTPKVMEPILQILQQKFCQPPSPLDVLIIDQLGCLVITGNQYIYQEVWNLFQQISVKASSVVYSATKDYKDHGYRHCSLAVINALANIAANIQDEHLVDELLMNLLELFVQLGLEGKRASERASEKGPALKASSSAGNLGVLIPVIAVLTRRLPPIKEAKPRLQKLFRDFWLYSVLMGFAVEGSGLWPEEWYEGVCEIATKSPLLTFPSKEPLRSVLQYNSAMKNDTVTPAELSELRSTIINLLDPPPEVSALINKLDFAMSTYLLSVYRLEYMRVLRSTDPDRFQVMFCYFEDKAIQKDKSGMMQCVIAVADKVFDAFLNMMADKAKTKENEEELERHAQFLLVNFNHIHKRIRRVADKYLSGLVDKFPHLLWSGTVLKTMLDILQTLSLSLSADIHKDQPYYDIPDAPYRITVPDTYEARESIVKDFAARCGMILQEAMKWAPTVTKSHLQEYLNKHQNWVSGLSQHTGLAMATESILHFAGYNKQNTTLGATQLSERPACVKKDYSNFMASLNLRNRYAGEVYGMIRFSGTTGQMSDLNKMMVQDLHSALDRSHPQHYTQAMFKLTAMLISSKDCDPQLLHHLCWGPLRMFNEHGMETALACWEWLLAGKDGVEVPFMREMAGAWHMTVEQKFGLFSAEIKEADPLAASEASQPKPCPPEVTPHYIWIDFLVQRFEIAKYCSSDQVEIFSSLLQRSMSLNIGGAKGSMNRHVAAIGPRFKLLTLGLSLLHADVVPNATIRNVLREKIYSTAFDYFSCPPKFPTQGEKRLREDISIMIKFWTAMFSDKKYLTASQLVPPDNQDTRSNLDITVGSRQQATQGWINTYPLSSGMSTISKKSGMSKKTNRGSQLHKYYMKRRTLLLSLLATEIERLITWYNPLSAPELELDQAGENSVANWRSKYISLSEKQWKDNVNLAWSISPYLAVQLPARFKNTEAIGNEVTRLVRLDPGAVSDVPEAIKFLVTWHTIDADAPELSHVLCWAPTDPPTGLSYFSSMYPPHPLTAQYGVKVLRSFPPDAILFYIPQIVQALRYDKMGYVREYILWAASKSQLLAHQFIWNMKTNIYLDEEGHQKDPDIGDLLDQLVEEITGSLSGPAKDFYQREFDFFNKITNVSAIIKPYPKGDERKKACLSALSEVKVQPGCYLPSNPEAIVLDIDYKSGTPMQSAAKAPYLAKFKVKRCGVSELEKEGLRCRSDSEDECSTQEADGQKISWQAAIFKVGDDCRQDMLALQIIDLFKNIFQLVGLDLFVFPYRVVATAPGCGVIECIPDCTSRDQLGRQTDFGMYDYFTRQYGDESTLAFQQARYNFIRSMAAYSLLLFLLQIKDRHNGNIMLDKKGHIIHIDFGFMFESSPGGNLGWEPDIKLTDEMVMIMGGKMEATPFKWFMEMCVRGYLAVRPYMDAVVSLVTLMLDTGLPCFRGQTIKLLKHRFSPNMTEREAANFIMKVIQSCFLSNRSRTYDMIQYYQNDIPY

Consider `COc1ccc(-c2sc(NC(=O)CC3CCOCC3)nc2C)cc1S(=O)(=O)Nc1ccc(O)cc1` [Compound S-227, N-[5-[3-[(4-hydroxyphenyl)sulfamoyl]-4-methoxy-phenyl]-4-methyl-thiazol-2-yl]-2-tetrahydropyran-4-yl-acetamide], for which the IC50 at PI3K p110g and against PI3KC2B was greater than 10 µM in each case. The EC50 with HCV genotype 2a is 1 to 100 nM; in the experiment on HRV it was 1 to 100 nM; in the experiment on EV71 it was less than 1 nM; in the experiment with Ebola, 100 to 1000 nM; in the experiment on Norovirus it was 100 to 1000 nM.
For the compound `COc1ccc(-c2sc(NCCC3CCCCC3)nc2C)cc1S(=O)(=O)NC1CCC(O)C1` (centres unmarked) [Compound S-214, 5-[2-(2-cyclohexylethylamino)-4-methyl-thiazol-5-yl]-N-(3-hydroxycyclopentyl)-2-methoxy-benzenesulfonamide], the IC50 at PI4KIIIA was greater than 10 µM; on PI4KIIIB, 100 to 1000 nM; against PI3K p110g, greater than 10 µM; on PI3KC2G, greater than 10 µM.
As to `COc1ccc(-c2sc(NC(=O)C3CCCC3)nc2C)cc1S(=O)(=O)Nc1ccc(O)cc1` [PT423], the Selection of resistance result in the experiment on HCV replicon is on record as “resistance was not able to be selected”.
On PI3K p110g, `COc1ccc(-c2sc(NC3CCCCCC3)nc2C)cc1S(=O)(=O)Nc1c(C)cccc1C` [Compound S-98, 5-[2-(cycloheptylamino)-4-methyl-thiazol-5-yl]-N-(2,6-dimethylphenyl)-2-methoxy-benzenesulfonamide; 2,2,2-trifluoroacetic acid] had an IC50 greater than 10 µM. The EC50 in the experiment on HCV genotype 2a is 1000 to 10000 nM; in the experiment with HRV, less than 1 nM; in the experiment with EV71, less than 1 nM; in the experiment with Norovirus, 1000 to 10000 nM.
Turning to `COc1ccc(-c2sc(NCC3CCCCC3)nc2C)cc1S(=O)(=O)Nc1cccc(C(C)(C)C)c1` [Compound S-32, N-(3-tert-butylphenyl)-5-[2-(cyclohexylmethylamino)-4-methyl-thiazol-5-yl]-2-methoxy-benzenesulfonamide; 2,2,2-trifluoroacetic acid], the values for the EC50 with HCV genotype 2a, in the experiment with HRV and in the experiment with Ebola were 1000 to 10000 nM, less than 1 nM and 1000 to 10000 nM, respectively.
